What was measured:
TNP-IgE mice = experiment: Mouse antigen-induced dermatitis model; type: in vivo; conditions: for Ear swelling control ratio (%): 30 minutes before allergen, 2 hours after antigen
Source text: Type I allergy models accompanied by a skin symptom (a dermatitis model) were produced, with TNP-IgE mice (CLEA Japan, Inc.). The mice are genetically modified BALB/c mice that constantly produce an IgE specific to hapten TNP (trinitrophenol) which is widely used as an allergen (antigen). It is possible to induce an allergic reaction in the mice, only by administering an allergen, without carrying out an immunization. […] An average value of thickening values of both ears was obtained as a value of an individual (provided that a previous value before the allergen application was 0 mm).
Ear swelling control ratio (%) was calculated by the following formula. Ear swelling control ratio (%)=(1−(Average value of ear thickening of compound administered group)/(Average value of ear thickening of vehicle administered group))×100

RBL-2H3 cells = experiment: Inhibitory activity against allergic reaction using RBL-2H3 cells (PGD2 production); type: cell-based, rat; conditions: Rattus norvegicus, RBL-2H3, RBL-2H3 cells, anti-DNP IgE / DNP-BSA; read-out: PGD2 production inhibitory concentration (IC50; (nM))
Description: Rat basophilic leukemia cells, RBL-2H3, were suspended in MEM medium containing 10% FBS, and then the cells were inoculated in a culture plate, and cultured in a CO2 incubator (Sanyo Electric Biomedical Co., Ltd.) at 37° C. for 12 hours. After a culture supernatant was removed and the cells were washed, an anti-DNP-mouse IgE (Alpha Diagnostic Inc.) solution was added thereto, and the cells were cultured in the CO2 incubator for 1 hour. After a culture supernatant was removed and the cells were washed, an MEM medium was added thereto.
Further, a DNP-BSA (LSL, Inc.) solution was added thereto and the cells were cultured in the CO2 incubator for 15 minutes. A culture supernatant was collected and reacted, with PGD2-MOX EIA kit (Cayman Chemical Inc.) on the basis of the protocol attached thereto, and absorbance was measured by SUNRISE RAINBOW THERMO (TECAM Inc.).

[1] = molecular target: T1, recombinant human BTK protein (Homo sapiens, UniProt Q06187); experiment: Measurement of BTK inhibitory activity (in vitro); type: biochemical; conditions: ATP 45 μM, 40 minutes at 25° C.
T1 construct: purchased Carna Biosciences, Inc
T1 sequence (Q06187 whole entry): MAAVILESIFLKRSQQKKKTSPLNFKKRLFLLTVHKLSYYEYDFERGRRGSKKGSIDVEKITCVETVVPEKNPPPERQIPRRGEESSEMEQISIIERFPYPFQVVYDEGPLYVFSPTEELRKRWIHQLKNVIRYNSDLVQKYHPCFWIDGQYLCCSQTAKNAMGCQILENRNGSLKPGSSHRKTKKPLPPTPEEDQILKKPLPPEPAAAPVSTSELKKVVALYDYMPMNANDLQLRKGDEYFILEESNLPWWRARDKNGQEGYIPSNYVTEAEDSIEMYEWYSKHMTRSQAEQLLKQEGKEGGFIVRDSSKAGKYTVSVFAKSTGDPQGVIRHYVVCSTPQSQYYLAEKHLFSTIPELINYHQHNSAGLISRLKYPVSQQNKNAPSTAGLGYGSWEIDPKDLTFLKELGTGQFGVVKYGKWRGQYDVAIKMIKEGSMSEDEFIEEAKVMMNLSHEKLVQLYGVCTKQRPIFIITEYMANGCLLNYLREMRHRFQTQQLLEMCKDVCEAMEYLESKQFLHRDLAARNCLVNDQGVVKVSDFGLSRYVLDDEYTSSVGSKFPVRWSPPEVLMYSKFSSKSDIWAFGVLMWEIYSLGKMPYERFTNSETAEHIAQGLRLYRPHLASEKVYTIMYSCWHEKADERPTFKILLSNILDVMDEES
Source text: Regarding the setting of the conditions for a method for measuring the inhibitory activity of a compound against BTK kinase activity in vitro, it is described in the consumable reagent supplies price list for LabChip (registered trademark) series of PerkinElmer, Inc. that FL-PEPTIDE 2 corresponds to a substrate peptide for the measurement of BTK kinase activity. Therefore, FL-PEPTIDE 2 was used as a substrate. The purified recombinant human BTK protein used in the test was purchased from Carna Biosciences, Inc.
Regarding the measurement of the inhibitory activity of the compounds, firstly, the compounds of the present invention were diluted stepwise with DMSO. Subsequently, BTK protein, a substrate peptide (final concentration was 1 μM), magnesium chloride (final concentration was 10 mM), ATP (final concentration was 45 μM), and a DMSO solution of the compounds of the present invention (final concentration of DMSO was 5%) were added to a buffer solution for kinase reaction (20 mM HEPES (pH 7.5), 2 mM dithiotheitol, 0.01% Triton X-100), and after the solution was incubated for 40 minutes at 25° C., a kinase reaction was carried out. The reaction was terminated by adding EDTA thereto so as to obtain a final concentration of 30 mM. Finally, a substrate peptide that was not phosphorylated (S) and a phosphorylated peptide (P) were separated and detected by microchannel capillary electrophoresis with a LabChip EZ Reader II (PerkinElmer, Inc.).

A431 cells/TMD8 cells = experiment: Proliferation inhibitory activity against cell lines expressing BTK and EGFR, comparison of selectivity; type: cell-based, human; conditions: cells cultured three days with compound, CELLTITER GLO
Source text: TMD8 cells, which are of a diffuse large B-cell lymphoma cell line expressing BTK, were suspended in RPMI1640 medium (Life Technologies Corp.) containing 10% fetal bovine serum. A431 cells, which are of an EGFR-overexpressing, highly activated human epidermoid carcinoma cell line, were suspended in DMEM, high glucose medium (Life Technologies Corp.) containing 10% fetal bovine serum. The cell suspensions were inoculated into each well of 384-well flat-bottomed microplates, and the cells were cultured for one day at 37° C. in an incubator containing 5% carbon dioxide gas. […] A DMSO solution of the test compounds was diluted with the medium used in the suspension of the each cell, and this was added to each of the wells of the cell culture plates such that the final concentration of DMSO would be 0.2%. The cells were further cultured for three days at 37° C. in an incubator containing 5% carbon dioxide gas. […] Proliferation inhibition ratio (%)=(C−T)/(C−C0)×100
T: Luminescence intensity of a well in which the test compound was added
C: Luminescence intensity of a well in which the test compound was not added
C0: Luminescence intensity of a well measured before the addition of the test compound
When a comparison is made between the cell proliferation inhibitory activity against A431 cells that depends on the EGFR proliferation signaling and the cell proliferation inhibitory activity against TMD8 cells that depends on the BTK proliferation signaling, the influence of the respective kinases at a cellular level is able to be evaluated. That is, when the “A431 cell proliferation inhibition ratio/TMD8 cell proliferation inhibition ratio” is calculated, it is contemplated that as the value of the ratio is larger, the selectivity to BTK over EGFR in the cells is higher.

EGFR/BTK = experiment: BTK inhibition selectivity compared with EGFR kinase inhibitory activity (in vitro); type: biochemical, human; conditions: ratio of IC50 values
Description: Therefore, a biotinated peptide (biotin-[…]) was produced by referring to the amino acid sequence of the peptide. The purified recombinant human EGFR protein used in the test was purchased from Carna Biosciences, Inc.
Regarding the measurement of the inhibitory activity of the compounds, firstly, the compounds of the present invention were diluted stepwise with DMSO. […] The reaction was terminated by adding EDTA thereto so as to obtain a final concentration of 24 mM. Subsequently, a detection liquid containing Eu-labeled anti-phosphorylated tyrosine antibody PT66 (PerkinElmer, Inc.) and SureLight APC-SA (PerkinElmer, Inc.) was added thereto, and the system was left to stand for 2 hours or longer at room temperature.

SMILES | IC50 [1] | EGFR inhibitory activity IC50 value (nM)/BTK inhibitory activity IC50 value (nM) (EGFR/BTK) | also measured
C=CC(=O)N1CCC[C@@H](n2nc(C(=O)Nc3nc4cc(Cl)ccc4o3)c3c(N)ncnc32)C1 [Example 1, (R)-1-(1-acryloylpiperidin-3-yl)-4-amino-N-(5-chlorobenzo[d]oxazol-2-yl)-1H-pyrazolo[3,4-d]pyrimidine-3-carboxamide] | – | – | Ear swelling control ratio (%) (TNP-IgE mice; 1 mg/kg oral): 66%; Ear swelling control ratio (%) (TNP-IgE mice; 3 mg/kg oral): 81%; ear swellings induced by the allergen application (TNP-IgE mice; from low dose, compared with Reference compound 1): suppressed equivalently or strongly ear swellings; IC50 (RBL-2H3 cells): 37 nM
C=CC(=O)N1CCC[C@@H](n2nc(C(=O)Nc3nc4cc(C#N)ccc4o3)c3c(N)ncnc32)C1 [Example 6, (R)-1-(1-acryloylpiperidin-3-yl)-4-amino-N-(5-cyanobenzo[d]oxazol-2-yl)-1H-pyrazolo[3,4-d]pyrimidine-3-carboxamide] | 0.738 nM | – | Ear swelling control ratio (%) (TNP-IgE mice; 3 mg/kg oral): 45%; A431 cell proliferation inhibition ratio/TMD8 cell proliferation inhibition ratio (A431 cells/TMD8 cells): 2786.0
C=CC(=O)N1CCC[C@@H](n2nc(C(=O)Nc3nc4cc(CCOC)ccc4o3)c3c(N)ncnc32)C1 [Example 8, (R)-1-(1-acryloylpiperidin-3-yl)-4-amino-N-(5-(2-methoxyethyl)benzo[d]oxazol-2-yl)-1H-pyrazolo[3,4-d]pyrimidine-3-carboxamide] | 1.27 nM | 22.9 | –
C=C(C)C(=O)N1CCC[C@@H](n2nc(C(=O)Nc3nc4cc(F)ccc4o3)c3c(N)ncnc32)C1 [Example 11, (R)-4-amino-N-(5-fluorobenzo[d]oxazol-2-yl)-1-(1-methacryloylpiperidin-3-yl)-1H-pyrazolo[3,4-d]pyrimidine-3-carboxamide] | 2.14 nM | 1294.6 | –
C/C=C/C(=O)N1CCC[C@@H](n2nc(C(=O)Nc3nc4ccccc4o3)c3c(N)ncnc32)C1 [Example 14, (R,E)-4-amino-N-(benzo[d]oxazol-2-yl)-1-(1-(but-2-enoyl)piperidin-3-yl)-1H-pyrazolo[3,4-d]pyrimidine-3-carboxamide] | 14.1 nM | 128.1 | A431 cell proliferation inhibition ratio/TMD8 cell proliferation inhibition ratio (A431 cells/TMD8 cells): >1400.6
CN(C)C/C=C/C(=O)N1CCC[C@@H](n2nc(C(=O)Nc3nc4cc(-c5cccs5)ccc4o3)c3c(N)ncnc32)C1 [Example 21, (R,E)-4-amino-N-(5-(thiophen-2-yl)benzo[d]oxazol-2-yl)-1-(1-(4-(dimethylamino)but-2-enoyl)piperidin-3-yl)-1H-pyrazolo[3,4-d]pyrimidine-3-carboxamide] | 0.777 nM | 147.4 | –
C=CC(=O)N1CC[C@@H](n2nc(C(=O)Nc3nc4ccccc4o3)c3c(N)ncnc32)C1 [Example 27, (R)-1-(1-acryloylpyrrolidin-3-yl)-4-amino-N-(benzo[d]oxazol-2-yl)-1H-pyrazolo[3,4-d]pyrimidine-3-carboxamide] | 1.43 nM | – | –
C=CC(=O)N1CC[C@@H](n2nc(C(=O)Nc3nc4cc(OC)ccc4o3)c3c(N)ncnc32)C1 [Example 38, (R)-1-(1-acryloylpyrrolidin-3-yl)-4-amino-N-(5-methoxybenzo[d]oxazol-2-yl)-1H-pyrazolo[3,4-d]pyrimidine-3-carboxamide] | 0.888 nM | – | –
C=CC(=O)N1CC(n2nc(C(=O)Nc3nc4cc(Cl)ccc4o3)c3c(N)ncnc32)C1 [Example 45, 1-(1-acryloylazetidin-3-yl)-4-amino-N-(5-chlorobenzo[d]oxazol-2-yl)-1H-pyrazolo[3,4-d]pyrimidine-3-carboxamide] | 1.25 nM | – | –
CN(C)C/C=C/C(=O)N1CC(n2cc(C(=O)Nc3nc4cc(Cl)ccc4o3)c3c(N)ncnc32)C1 [Example 47, (E)-4-amino-N-(5-chlorobenzo[d]oxazol-2-yl)-7-(1-(4-(dimethylamino)but-2-enoyl)azetidin-3-yl) 7H-pyrrolo[2,3-d]pyrimidine-5-carboxamide] | 7.34 nM | 20.4 | –

From US9782412B2, “Preventive and/or therapeutic agent of immune disease” (TAIHO PHARMACEUTICAL CO., LTD., priority 2015, dated 2017)
